These results are taken from patent US8420649B2, “Pyrido[3,2-d]pyridazine-2(1H)-one compounds as p38 modulators and methods of use thereof” (Amgen Inc., priority 2008, dated 2013).

The target in one experiment is human p38α (Homo sapiens, UniProt Q16539). Kind of experiment: Purified and activated recombinant human p38α HTRF kinase assay. Format: biochemical. Particulars: recombinant human p38α 1 nM, 50 μM ATP, read-out: p38a IC50. The method, then:
Purified and Activated Recombinant Human p38α Assay Kinase Reaction Buffer: Kinase reaction buffer for p38α HTRF assays consists of 50 mM Tris-pH 7.5, 5 mM MgCl2, 0.1 mg/mL BSA, 100 μM Na3VO4 and 0.5 mM DTT. HTRF Detection Buffer: HTRF detection buffer contains 100 mM HEPES-pH 7.5, 100 mM NaCl, 0.1% BSA, 0.05% Tween-20, and 10 mM EDTA. Serial Dilution of Compounds: Compounds were dissolved in 100% DMSO and serially diluted (3 fold, 10 point) in a polypropylene 96-well microtiter plate (drug plate). The final starting concentration of compounds in the p38α enzymatic assays was 1 μM. […] Kinase Reaction: […] See table below for actual concentrations. In the absence of substrate, the background was measured as LO control. The reaction was allowed to incubate for 1 hour at RT. Assay Reagent Concentrations: […] HTRF Detection: […] After 60 minutes incubation at room temperature, the assay plate was read in a Discovery Plate Reader. The wells were excited with coherent 320 nm light and the ratio of delayed ([…] post excitation) emissions at […] (native europium fluorescence) and 665 nm (europium fluorescence transferred to allophycocyanin-an index of substrate phosphorylation) was determined (Park et al, 1999). Data Analysis: The proportion of substrate phosphorylated in the kinase reaction in the presence of compound compared with that phosphorylated in the presence of DMSO vehicle alone (HI control) was calculated using the formula: % control (POC)=(compound-average LO)/(average HI-average LO)*100. […] The inhibition constant (Ki) of the inhibitor was estimated from the IC50 (compound concentration at the point of inflection C) using the Cheng-Prussof equation: […] All results were expressed as the mean±the standard error of the mean.
In general terms: Time-resolved FRET reads energy transfer from a long-lived donor to a nearby acceptor.

Experiment [1] relates to IL-1β, IL-6 and TNF-α production by LPS-activated PBMC. Nature of the experiment: Lipopolysaccharide-activated PBMC cytokine production assay. The note with it: Homo sapiens, read-out: IC50 in the whole blood PMBC assay. Format: cell-based. On the procedure: Lipopolysaccharide-Activated PBMC Cytokine Production Assay
Test compounds were evaluated in vitro for the ability to inhibit the production of IL-1β, IL-6, and TNF-α by PBMC activated with bacterial lipopolysaccharide (LPS). Fresh leukocytes were obtained from a local blood bank, and peripheral blood mononuclear cells (PBMCs) were isolated by density gradient centrifugation on Ficol-Paque Plus (Pharmacia).
Preparation of Test Compound Stock Solutions
All reagents were prepared in RPMI 1640+10% v/v human AB serum+1× Pens/Strep/Glu (assay medium). Test compounds were dissolved in 100% DMSO and serially diluted in 96-well polypropylene round bottom micro titer plates (drug plate). Serial dilutions were then diluted 1:250 into assay medium to a 4× working concentration. Compound serial dilutions were half-log, 10 point titrations with a final starting concentration of 1 μM.
Treatment of Cells with Test Compounds and Activation with Lipopolysaccharide
LPS was prepared to a 4× concentration in assay medium. 100 μl of PBMC (1×10^6 cells/ml) were plated in a 96-well polystyrene flat bottom micro titer tissue culture plate and incubated with 50 μl of 4× compound serial dilution for 1 hour at 37° C., 5% CO2 in a tissue culture incubator. 50 μl 4×LPS or control was added and the plates were incubated at 37° C., 5% CO2 in a tissue culture incubator for 18 hours. The final DMSO concentration was 0.1%. The total volume was 200 μL. The final LPS concentration was 100 ng/mL. After 18 hours culture supernatants were removed and IL-1β, IL-6, and TNF-α presence in the supernatants was quantified using MSD ECL based technology.
20 μL of culture supernatant were added to MSD plates, and incubated for one hour at room temperature. 20 μL of detection antibody diluted in antibody diluent (1 μg/mL), and 110 μL of 2× Read Buffer P was added, and incubated for one hour at RT. Electrochemiluminescence was measured using the SECTOR HTS Imager (MSD, Gaithersburg, Md.).
Compound IC50 values were calculated as follows: The proportion of cytokine production in the presence of compound compared to the cytokine production in the presence of the DMSO vehicle alone (Hi control) was calculated using the formula: Percent Control (POC)=(compound−average Lo)/(average Hi−average Lo)*100.

Experiment [2] has as its system TNF-α production by LPS-activated THP1 cells. Kind of experiment: Lipopolysaccharide-activated THP1 cell TNF production assay. Format: cell-based. The note with it: Homo sapiens, THP-1, 3 hours, read-out: IC50 in the THP-1 cellular TNF production assay. The method, then: Lipopolysaccharide-activated THP1 Cell TNF Production Assay
THP1 cells were resuspended in fresh THP1 media (RPMI 1640, 10% heat-inactivated FBS, 1×PGS, 1×NEAA, plus 30 μM βME) at a concentration of 1.5×10^6 cells per mL. One hundred microliters of cells per well were plated in a polystyrene 96-well tissue culture plate. 1.5 micrograms per mL of bacterial LPS was prepared in THP1 media and transferred to the first 11 columns of a 96-well polypropylene plate. Column 12 contained only THP1 media for the LO control. Compounds were dissolved in 100% DMSO and serially diluted 3 fold in a polypropylene 96-well microtiter plate (drug plate). Columns 6 and 12 were reserved as controls (HI controls and LO controls respectively) and contained only DMSO. […] Fifty microliters of conditioned media was transferred to a 96-well MULTI-ARRAY™ 96-well small spot plate—custom coated with MAB610 containing 100 μL of 2× Read Buffer P supplemented with 0.34 nM AF210NA polyclonal Ab labeled with ruthenium (MSD-Sulfo-TAG™—NHS ester). After an overnight incubation at room temperature with shaking, the reaction was read on the Sector Imager™ 6000. […] The amount of secreted TNF-α in the presence of test compounds compared with that in the presence of DMSO vehicle alone (HI control) was calculated using the formula: % control (POC)=(cpd−average LO)/(average HI−averageLO)*100. […]

Experiment [3] relates to TNF-α induced IL-8 production in human whole blood. Nature of the experiment: Inhibition of TNF-α induced IL-8 in 50% human whole blood. Format: cell-based. The method, then: Inhibition of TNF-α Induced IL-8 in 50% Human Whole Blood Test compounds were evaluated in vitro for the ability to inhibit the production of secreted IL-8 by whole blood activated with TNF-α. Fresh human whole blood was obtained from healthy, non-medicated volunteers in sodium heparin tubes. Compound Dilution—Assay Procedure […] Cytokine Measurement Cytokines are measured on antibody (Ab) sandwich ECL based 96-well detection plates. 20 ul of supernatant are added to plate and plate is sealed and shaken at RT for 1 hour. 130 ul of detection Ab cocktail is added and plates are sealed and shaken for 1 hour in the dark at RT. Plates are read on MSD Sector HTS instrument.

Setting [4] is: Homo sapiens, read-out: WB TNF/IL8 IC50, TNF-α (1 nM) induced IL-8, 50% human whole blood, 16-18 hours.

Each structure is given as a SMILES string. Several values for one entry are separate records, joined by “and”; a condition that tells them apart may be missing. Identical values can stand only once. Like-named read-outs stand apart in the source and are kept apart here.

Chain of human p38α (Q16539 whole entry): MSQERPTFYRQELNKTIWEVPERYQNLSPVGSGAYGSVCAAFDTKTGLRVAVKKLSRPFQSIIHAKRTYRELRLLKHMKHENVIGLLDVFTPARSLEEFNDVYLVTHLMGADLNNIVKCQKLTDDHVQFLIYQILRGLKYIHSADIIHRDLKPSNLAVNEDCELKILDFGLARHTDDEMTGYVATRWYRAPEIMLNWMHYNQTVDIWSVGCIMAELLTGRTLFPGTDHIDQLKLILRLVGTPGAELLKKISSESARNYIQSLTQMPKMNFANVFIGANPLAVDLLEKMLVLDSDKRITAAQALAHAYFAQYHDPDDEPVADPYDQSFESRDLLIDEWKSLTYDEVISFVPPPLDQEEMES

Consider `Cn1c(=O)c(Nc2ccc(F)cc2F)cc2cnnc(-c3ccc(F)cc3F)c21` [Example 1, 8-(2,4-difluorophenyl)-3-(2,4-difluorophenylamino)-1-methylpyrido[3,2-d]pyridazin-2(1H)-one], for which the IC50 was 0.0008 µM on human p38α, at most 1 µM in experiment [1] (18 h) and at most 1 µM in experiment [2].

`Cn1c(=O)c(Oc2ccc(F)cc2)cc2cnnc(-c3ccc(F)cc3F)c21` [Example 2, 8-(2,4-difluorophenyl)-3-(4-fluorophenoxy)-1-methylpyrido[3,2-d]pyridazin-2(1H)-one]: the IC50 on human p38α is ≤ 0.125 µM and 0.102 µM; in experiment [1] (18 h), at most 1 µM; in experiment [3] (setting [4]) it was at most 0.3 µM; in experiment [3] (read-out: WB TNF/IL8 IC50, TNF-α (1 nM) induced IL-8, 50% human whole blood, 16-18 hours), 0.273 µM; in experiment [2] it was at most 1 µM.

Consider `Cn1c(=O)c(Nc2ccc(F)cc2F)cc2cnnc(-c3ccc(C(F)(F)F)cc3F)c21` [Example 3, 3-(2,4-difluorophenylamino)-8-(2-fluoro-4-(trifluoromethyl)phenyl)-1-methylpyrido[3,2-d]pyridazin-2(1H)-one], for which the values for the IC50 (on human p38α; in experiment [1] (18 h)) were 0.0023 µM and at most 1 µM, respectively.

As for `Cn1c(=O)c(Nc2ccc(F)cn2)cc2cnnc(-c3ccc(F)cc3F)c21` [Example 4, 8-(2,4-difluorophenyl)-3-((5-fluoro-2-pyridinyl)amino)-1-methylpyrido[2,3-d]pyridazin-2(1H)-one], the figures for the IC50 (on human p38α; in experiment [3] (setting [4])) were 0.327 µM and above 2.5 µM, respectively.

As for `CCn1c(=O)c(Nc2ccc(F)cc2F)cc2cnnc(-c3ccc(F)cc3F)c21` [Example 5, 8-(2,4-difluorophenyl)-3-((2,4-difluorophenyl)amino)-1-ethylpyrido[2,3-d]pyridazin-2(1H)-one], the IC50 was 0.0002 µM at human p38α and at most 1 µM in experiment [1] (18 h).

In the case of `Cn1c(=O)c(Oc2ccc(F)cc2F)cc2cnnc(-c3ccccc3Cl)c21` [Example 6, 8-(2-chlorophenyl)-3-(2,4-difluorophenoxy)-1-methylpyrido[2,3-d]pyridazin-2(1H)-one], the values for the IC50 (on human p38α; in experiment [1] (18 h)) were 0.0006 µM and at most 1 µM, respectively.

Regarding `Cn1c(=O)c(Nc2ncc(F)cc2F)cc2cnnc(-c3ccc(F)cc3F)c21` [Example 7, 8-(2,4-difluorophenyl)-3-((3,5-difluoro-2-pyridinyl)amino)-1-methylpyrido[2,3-d]pyridazin-2(1H)-one], the IC50 at human p38α is 0.111 µM; in experiment [3] (setting [4]) it was above 2.5 µM.

Take `Cc1cc(S(C)(=O)=O)ccc1-c1nncc2cc(Nc3ccc(F)cc3F)c(=O)n(C)c12` [Example 8, 3-((2,4-difluorophenyl)amino)-1-methyl-8-(2-methyl-4-(methylsulfonyl)phenyl)pyrido[2,3-d]pyridazin-2(1H)-one]: the results for the IC50 (on human p38α; in experiment [1] (18 h)) were 0.0017 µM and at most 1 µM, respectively.

As to `Cc1cc(S(C)(=O)=O)ccc1-c1nncc2cc(Oc3ccc(F)cc3F)c(=O)n(C)c12` [Example 9, 3-(2,4-difluorophenoxy)-1-methyl-8-(2-methyl-4-(methylsulfonyl)phenyl)pyrido[2,3-d]pyridazin-2(1H)-one], the IC50 on human p38α is 0.011 µM; in experiment [1] (LPS 100 ng/mL, 18 hours), at most 1 µM.

Take `Cn1c(=O)c(Nc2ccc(F)cc2F)cc2cnnc(-c3ccc(S(C)(=O)=O)cc3Cl)c21` [Example 10, 8-(2-chloro-4-(methylsulfonyl)phenyl)-3-((2,4-difluorophenyl)amino)-1-methylpyrido[2,3-d]pyridazin-2(1 H)-one]: the IC50 on human p38α is 0.0008 µM; in experiment [1] (LPS 100 ng/mL, 18 hours), at most 1 µM.

`Cn1c(=O)c(Nc2ccc(F)cc2)cc2cnnc(-c3ccc(F)cc3F)c21` [Example 11, 8-(2,4-difluorophenyl)-3-((4-fluorophenyl)amino)-1-methylpyrido[2,3-d]pyridazin-2(1H)-one]: the IC50 at human p38α is 0.0022 µM; in experiment [1] (LPS 100 ng/mL, 18 hours), at most 1 µM.

For `Cn1c(=O)c(Oc2ccc(F)cc2F)cc2cnnc(-c3ccc(F)cc3F)c21` [Example 12, 3-(2,4-difluorophenoxy)-8-(2,4-difluorophenyl)-1-methylpyrido[2,3-d]pyridazin-2(1H)-one], the IC50 at human p38α was 0.0084 µM; in experiment [1] (LPS 100 ng/mL, 18 hours), at most 1 µM.
